# Experimental data: patent US20200030349A1, “PHYSIOLOGICALLY ACTIVE PREPARATION COMPRISING N-ACETYL-GLUCOSAMINE FOR THE TREATMENT OF BACK PAIN” (Natural Products & Drugs GmbH, priority 2017, published 2020)
# Experiments:
# stability in solution = type: physicochemical; details: over pH range
# Description: (§1) Advantageously according to the invention, the composition for use in a method for the prophylaxis and/or treatment of back pain and the composition comprising at least two components are in the form of an oral dosage form. An oral dosage form is easy to handle and is accepted by a user without problems. In addition, the user can easily take the composition themself. It is preferably a solid form of administration, in particular in the form of capsules, tablets, dragées, granules and powders. Addition of the composition to functional foods, such as a bar for healthy nutrition, is also possible. Alternatively or in addition, a liquid dosage form, in particular in the form of drops, stable solutions and/or juices, is also possible.
# water solubility = type: physicochemical
# Description: as §1
compound,measurement,setting,value
"CC(=O)N[C@H]1C(O)O[C@H](CO)[C@@H](O)[C@@H]1O (stereo partly drawn) [N-acetyl-glucosamine, N-acetyl-D-glucosamine]",stability in solution,stability in solution,stable in solution over a wide pH range
same,water solubility,water solubility,good water solubility
